Test results taken from ChEMBL document CHEMBL1147641, “Highly potent and long-acting trimeric and tetrameric inhibitors of influenza virus neuraminidase” (Bioorg Med Chem Lett, 2004).
Values after ≈ are worked out from the molar mass of the structure shown.

Key:
Influenza A virus = test: Antiinfluenza activity of compound against Influenza A/Sydney/5/97 in influenza cytopathic effect (CPE) assay; type: functional, organism-based
Influenza B virus = test: Antiinfluenza activity of compound against Influenza B/Harbin/7/95 in influenza cytopathic effect (CPE) assay; type: functional, organism-based
Mus musculus [1] = test: Reduction in virus titre taken from mouse infected with Influenza A/Singapore/1/57 at 1.0 mg/kg dose in 7 day mouse influenza prevention assay; type: functional
Mus musculus [2] = test: Reduction in virus titre taken from mouse infected with Influenza A/Singapore/1/57 at 0.1 mg/kg dose in 7 day mouse influenza prevention assay; type: functional
Mus musculus [3] = test: Number of virus free mice from total 9 mice infected with Influenza A/Singapore/1/57 after 12.5 mg/kg of intranasal administration for 51 hr prior to viral infection; type: functional
Mus musculus [4] = test: Number of virus free mice from total 8 mice infected with Influenza A/Singapore/1/57 after 12.5 mg/kg of intranasal administration for 172 hr prior to viral infection; type: functional
Mus musculus [5] = test: Reduction in virus titre taken from mouse infected with Influenza A/Singapore/1/57 at 1.6 mg/kg dose in 7 day mouse influenza prevention assay; type: functional
Mus musculus [6] = test: Reduction in virus titre taken from mouse infected with Influenza A/Singapore/1/57 at 0.4 mg/kg dose in 7 day mouse influenza prevention assay; type: functional
Mus musculus [7] = test: Number of virus free mice from total 9 mice infected with Influenza A/Singapore/1/57 after 12.5 mg/kg of intranasal administration for 145 hr prior to viral infection; type: functional
Mus musculus [8] = test: Number of virus free mice from total 10 mice infected with Influenza A/Singapore/1/57 after 12.5 mg/kg of intranasal administration for 117 hr prior to viral infection; type: functional
Mus musculus [9] = test: Number of virus free mice from total 10 mice infected with Influenza A/Singapore/1/57 after 12.5 mg/kg of intranasal administration for 172 hr prior to viral infection; type: functional
Mus musculus [10] = test: Reduction in virus titre taken from mouse infected with Influenza A/Singapore/1/57 at 0.01 mg/kg dose in 7 day mouse influenza prevention assay; type: functional

SMILES | EC50 (Influenza A virus) | EC50 (Influenza B virus) | Effectiveness (Mus musculus [1]) | Effectiveness (Mus musculus [2]) | No. of virus free mice (Mus musculus [3]) | No. of virus free mice (Mus musculus [4]) | Effectiveness (Mus musculus [5]) | Effectiveness (Mus musculus [6]) | No. of virus free mice (Mus musculus [7]) | No. of virus free mice (Mus musculus [8]) | No. of virus free mice (Mus musculus [9]) | Effectiveness (Mus musculus [10])
CC(=O)N[C@H]1[C@H]([C@H](OC(=O)NCCCCCCN)[C@H](O)CO)OC(C(=O)O)=C[C@@H]1NC(=N)N | 438 ng/mL (≈ 923 nM) | 213 ng/mL (≈ 449 nM) | – | – | – | – | – | – | – | – | – | –
CC(=O)N[C@H]1[C@H]([C@H](OC(=O)NCCCCCCNC(=O)CC(O)(CC(=O)NCCCCCCNC(=O)O[C@@H]([C@@H]2OC(C(=O)O)=C[C@H](N=C(N)N)[C@H]2NC(C)=O)[C@H](O)CO)C(=O)NCCCCCCNC(=O)O[C@@H]([C@@H]2OC(C(=O)O)=C[C@H](NC(=N)N)[C@H]2NC(C)=O)[C@H](O)CO)[C@H](O)CO)OC(C(=O)O)=C[C@@H]1N=C(N)N | 0.159 ng/mL (≈ 0.102 nM) | 2.48 ng/mL (≈ 1.58 nM) | 99.11% | 85.88% | – | – | – | – | – | – | – | –
CC(=O)N[C@H]1[C@H]([C@H](O)[C@H](O)CO)OC(C(=O)O)=C[C@@H]1NC(=N)N [ZANAMIVIR] | 32.5 ng/mL (≈ 97.8 nM) | 12.2 ng/mL (≈ 36.7 nM) | 81.76% | – | 3 | 0 | 97.03% | 0% | 3 | 1 | 0 | –
CC(=O)N[C@H]1[C@H]([C@H](OC(=O)NCCCCCCNC(=O)[C@H]2C[C@@H](C(=O)NCCCCCCNC(=O)O[C@@H]([C@@H]3OC(C(=O)O)=C[C@H](NC(=N)N)[C@H]3NC(C)=O)[C@H](O)CO)C[C@@H](C(=O)NCCCCCCNC(=O)O[C@@H]([C@@H]3OC(C(=O)O)=C[C@H](NC(=N)N)[C@H]3NC(C)=O)[C@H](O)CO)C2)[C@H](O)CO)OC(C(=O)O)=C[C@@H]1NC(=N)N | 0.3 ng/mL (≈ 0.189 nM) | 0.438 ng/mL (≈ 0.276 nM) | 98.32% | 94.38% | – | – | – | – | – | – | – | –
CC(=O)N[C@H]1[C@H]([C@H](OC(=O)NCCCCCCNC(=O)c2cc(C(=O)NCCCCCCNC(=O)O[C@@H]([C@@H]3OC(C(=O)O)=C[C@H](N=C(N)N)[C@H]3NC(C)=O)[C@H](O)CO)cc(C(=O)NCCCCCCNC(=O)O[C@@H]([C@@H]3OC(C(=O)O)=C[C@H](NC(=N)N)[C@H]3NC(C)=O)[C@H](O)CO)c2)[C@H](O)CO)OC(C(=O)O)=C[C@@H]1N=C(N)N | 0.82 ng/mL (≈ 0.519 nM) | 1.33 ng/mL (≈ 0.842 nM) | – | 96.24% | – | – | – | – | – | – | – | 70.15%
CC(=O)N[C@H]1[C@H]([C@H](OC(=O)NCCCCCCNC(=O)CC(CC(=O)NCCCCCCNC(=O)O[C@@H]([C@@H]2OC(C(=O)O)=C[C@H](N=C(N)N)[C@H]2NC(C)=O)[C@H](O)CO)C(=O)NCCCCCCNC(=O)O[C@@H]([C@@H]2OC(C(=O)O)=C[C@H](NC(=N)N)[C@H]2NC(C)=O)[C@H](O)CO)[C@H](O)CO)OC(C(=O)O)=C[C@@H]1N=C(N)N | 0.4 ng/mL (≈ 0.259 nM) | 0.81 ng/mL (≈ 0.524 nM) | 98.24% | 68.78% | – | – | – | – | – | – | – | –
CC(=O)N[C@H]1[C@H]([C@H](OC(=O)NCCCCCCNC(=O)c2cc(C(=O)NCCCCCCNC(=O)O[C@@H]([C@@H]3OC(C(=O)O)=C[C@H](N=C(N)N)[C@H]3NC(C)=O)[C@H](O)CO)c(C(=O)NCCCCCCNC(=O)O[C@@H]([C@@H]3OC(C(=O)O)=C[C@H](NC(=N)N)[C@H]3NC(C)=O)[C@H](O)CO)cc2C(=O)NCCCCCCNC(=O)O[C@@H]([C@@H]2OC(C(=O)O)=C[C@H](N=C(N)N)[C@H]2NC(C)=O)[C@H](O)CO)[C@H](O)CO)OC(C(=O)O)=C[C@@H]1N=C(N)N | 0.53 ng/mL (≈ 0.255 nM) | 0.95 ng/mL (≈ 0.457 nM) | 99.68% | 74.88% | – | – | – | – | – | – | – | –
CC(=O)N[C@H]1[C@H]([C@H](OC(=O)NCCCCCCNC(=O)CN(CCN(CC(=O)NCCCCCCNC(=O)O[C@@H]([C@@H]2OC(C(=O)O)=C[C@H](N=C(N)N)[C@H]2NC(C)=O)[C@H](O)CO)CC(=O)NCCCCCCNC(=O)O[C@@H]([C@@H]2OC(C(=O)O)=C[C@H](NC(=N)N)[C@H]2NC(C)=O)[C@H](O)CO)CC(=O)NCCCCCCNC(=O)O[C@@H]([C@@H]2OC(C(=O)O)=C[C@H](N=C(N)N)[C@H]2NC(C)=O)[C@H](O)CO)[C@H](O)CO)OC(C(=O)O)=C[C@@H]1N=C(N)N | 1.07 ng/mL (≈ 0.505 nM) | 2.84 ng/mL (≈ 1.34 nM) | – | 95.53% | – | – | – | – | – | – | – | 68.38%
